Experimental data: patent US7371407B2, “Use of Emu Oil and its various fractions as a carrier for antifungal, antibacterial, and antiviral medications and preparations” (Ganeden Biotech, Inc., priority 1999, dated 2008)

Columns and labels:
[1] = topically-administered without dermal-penetrants; cited from earlier work
Trichophyton species = test: In vitro inhibition assay on potato-dextrose plates, fungal pathogens; assay type: cell-based; conditions: positive control, 18 hr at 30° C.
Description: In the assay, potato-dextrose plates (DIFCO®, Detroit, Mich.) were prepared using standard procedures and were inoculated individually with a confluent bed (about 1.7×10^6) of various species of the fungus Trichophyton. The tested fungal strains of Trichophyton species (available from the American Type Culture Collection (ATCC; Rockville, Md.)) and their ATCC accession numbers, as well as the results of in vitro inhibition by Bacillus coagulans are illustrated in FIG. 4.
Inhibition by Bacillus coagulans was ascertained by placing on the plate approximately 1.5×10^6 colony forming units (CFU) in 10 μl of broth or buffer, plated directly in the center of the potato-dextrose plate, with one test locus per plate. The size of each test locus was approximately 8 mm in diameter and a minimum of three tests were performed for each inhibition assay. The negative control consisted of a […] of sterile saline solution, whereas the positive control consisted of a […] 2% Miconazole (1-[2-(2,4-dichlorophenyl)-2-[(2,4-dichlorophenyl)methoxylmethyl-1,11-imidazole within an inert cream.
The plates were then incubated for approximately 18 hr at 30° C., at which time the zones of inhibition were measured. […]

four species of Candida = test: In vitro inhibition assay on potato-dextrose plates, yeast pathogens; assay type: cell-based; conditions: positive control, 18 hr at 30° C.
Description: Each of the yeast pathogens and their ATCC accession numbers are illustrated in FIG. 5.
In the in vitro inhibition assay, potato-dextrose plates (DIFCO®, Detroit, Mich.) were prepared using standard procedures and were inoculated individually with a confluent bed about 1.7×10^6 of the four species of Candida. Inhibition by Bacillus coagulans was tested by placing on the plate about 1.5×10^6 colony forming units (CFU) in 10 μl of broth or buffer, plated directly in the center of the potato-dextrose plate with one test locus of about 8 mm in diameter per plate. A minimum of three tests were performed for each inhibition assay. The negative control consisted of a 10 μl volume of a sterile saline solution, whereas the positive control consisted of a 1 μl volume of Miconazole cream.
The plates were then incubated for approximately 18 hr at 30° C., at which time the zones of inhibition were measured. As designated herein, “excellent inhibition” means the zone was 10 mm or greater in diameter; and “good inhibition” means the zone was greater than 2 mm in diameter, but less than 10 mm in diameter.

[2] = tested on: opportunistic bacterial pathogens; test: In vitro bacterial pathogen screen (DIFCO BACTROL Disk Set) on potato-dextrose plates; assay type: cell-based; conditions: positive control, 18 hr at 30° C.
From the text: The ability of Bacillus coagulans to inhibit various opportunistic bacterial pathogens was quantitatively ascertained by use of an in vitro assay. This assay is part of a standardized bacterial pathogen screen (developed by the U.S. Food and Drug Administration(FDA)) and is commercially available on solid support disks (DIFCO® BACTROL® Disk Set). To perform the assay, potato-dextrose plates (DIFCO®) were initially prepared using standard procedures. The plates were then individually inoculated with each of the bacteria (approximately 1.5×10^6 CFU) to be tested, so as to form a confluent bacterial bed.
Inhibition by Bacillus coagulans was subsequently ascertained by placing approximately 1.5×10^6 CFU of Bacillus coagulans in 10 μl of broth or buffer, directly in the center of the potato-dextrose plate, with one test locus being approximately 8 mm in diameter per plate. A minimum of three test loci were used for each assay. The negative control consisted of a 10 μl volume of a sterile saline solution, whereas the positive control consisted of a 10 μl volume of glutaraldehyde. The plates were then incubated for approximately about 18 hr at 30° C., at which time the zones of inhibition were measured. […]

## CC(C(=O)O)c1cccc(C(=O)c2ccccc2)c1 (stereo not shown) [Ketoprofen]
[1]
  adsorption through viable, keritinized dermal tissue: very limited concentration, if at all

## Clc1ccc(COC(Cn2ccnc2)c2ccc(Cl)cc2Cl)c(Cl)c1 (stereo not shown) [Miconazole]
Trichophyton species; 2% in inert cream, mean average of three tests
  zone of inhibition, diameter: approximately 8.5 mm
Trichophyton species
  inhibition class: good (“good inhibition” means the zone was greater than 2 mm in diameter, but less than 10 mm in diameter)
Four species of Candida; cream, average of three tests
  zone of inhibition, diameter: approximately 8.7 mm
Four species of Candida
  inhibition class: good (“good inhibition” means the zone was greater than 2 mm in diameter, but less than 10 mm in diameter)

## O=CCCCC=O [glutaraldehyde]
[2]; 10 μl, average of three tests
  zone of inhibition, diameter: approximately 16.2 mm
[2]
  inhibition class: excellent (“excellent inhibition” means the zone was 10 mm or greater in diameter)
